Tested on: KU-19-19 cells
Assay: MTT cell viability/proliferation assay
Format: cell-based, human
Conditions: 24 hours, concentrations up to 50 μM
Experimental: To monitor a potential cytotoxicity of individual compounds, 3-(4,5-dimethylthiazol-2-yl)-2,5-diphenyltetrazolium bromide (MTT) assays were performed to assess cell viability and metabolic activity. Cells (5000 per/well) were seeded in PLL-coated 96-well plates and allowed to adhere overnight. After 24 hours, culture medium was exchanged for medium containing indicated drugs, and cells were cultured for another 24 hours. Following treatment with the compounds, 100 μL of medium containing 0.5 mg/mL MTT was added, and cells were incubated for additional 3 hours. The medium was removed, and 100 μL of DMSO was added to dissolve formazan crystals. Absorbance was measured at 560 nm, with a reference wavelength at 670 nm using a plate reader (Polarstar Omega; BMG Labtech). Cell viability was calculated relative to untreated control cells.
Fig. 4 TRPV3 activation by AV3-1 was enhanced by cholesterol supplementation and causes ATP release in KU-19-19 bladder cancer cells. […] Current amplitudes were recorded using voltage ramps from −100 mV to +100 mV (500-millisecond duration) and expressed as current density (pA/pF) measured at +100 mV and −100 mV. (C) Quantification of current densities (pA/pF) at −100 mV (inward current) and +100 mV (outward current) at the time points (1, 2) as indicated in (A, B). […]

Question: How did the “toxicity (cell viability and proliferation, MTT)” value turn out when COC(=O)C12CN(Cc3ccccc3)CC1(C(=O)OC)CN(Cc1ccccc1)C2 (stereo not shown) [AV3-1] was run?
Answer: Its value is “only minor toxicity”.

— PMC12881674, “Activation of TRPV3 channels in bladder cancer cells stimulates ATP release” (Molecular Pharmacology, 2025)
